# System: ApoA-I mRNA
# Experiment: ApoA-I mRNA quantitation in HepG2 cells (real-time PCR)
# Assay type: cell-based
# Design: key: Active: An active compound is one that causes a >15% increase in ApoA-I mRNA at a concentration less than or equal to 100 uM
# Conditions: concentration less than or equal to 100 uM, fold induction relative to DMSO control
# Experimental: At time of harvesting, the spent media was removed from the HepG2 cells and immediately placed on ice (for immediate use) or at −80° C. (for future use) in ApoA-I and albumin ELISAs. The cells remaining in the plate wells were rinsed in 200 μL PBS. PBS was carefully removed to avoid removing any loosely attached cells.
# Once the PBS was removed, 85 μL cell lysis solution was added to the cells in each well and incubated for 5-10 min at room temperature, to allow for complete cell lysis and detachment. mRNA was then prepared using the “mRNA Catcher PLUS plate” from Invitrogen, according to the protocol supplied. After the last wash, as much wash buffer as possible was aspirated without allowing the wells to dry. Elution Buffer (E3, 80 μL) was then added to each well. mRNA was then eluted by incubating the mRNA Catcher PLUS plate with Elution Buffer for 5 min at 68° C. and then immediately placing the plate on ice.
# The eluted mRNA was isolated and then used in a one-step real-time […]-PCR reaction, using components of the Ultra Sense Kit together with Applied Biosystems primer-probe mixes. Real-time PCR data was analyzed, using the Ct values, to determine the fold induction of each unknown sample, relative to the control (that is, relative to the control for each independent DMSO concentration).
# The following compounds of Formula I were evaluated in this assay. An active compound is one that causes a >15% increase in ApoA-I mRNA at a concentration less than or equal to 100 uM.
row,Structure (SMILES),Effect on ApoA-I mRNA levels
1,"COc1cc(OC)c2c(=O)[nH]c(-c3cccnc3Oc3ccc(Cl)cc3)nc2c1 [2-(2-(4-chlorophenoxy)pyridin-3-yl)-5,7-dimethoxyquinazolin-4(3H)-one]",Inactive
2,"COc1cc(OC)c2c(=O)[nH]c(-c3cc(C)c(OCCN4CCOCC4)c(C)c3)cc2c1 [3-(3,5-dimethyl-4-(2-morpholinoethoxy)phenyl)-6,8-dimethoxyisoquinolin-1(2H)-one]",Active
3,"COc1cc2nc(-c3cc(C)c(OCCO)c(C)c3)[nH]c(=O)c2cc1OC [2-(4-(2-hydroxyethoxy)-3,5-dimethylphenyl)-6,7-dimethoxyquinazolin-4(3H)-one]",Active
4,"Cc1cc(-c2nc3ccc(Br)cc3c(=O)[nH]2)cc(C)c1OCCO[Si](C)(C)C(C)(C)C [6-bromo-2-(4-(2-(tert-butyldimethylsilyloxy)ethoxy)-3,5-dimethylphenyl)quinazolin-4(3H)-one]",Active
5,"COc1cc(OC)c2c(=O)[nH]c(-c3cc(C)c(OCC(C)(C)O)c(C)c3)cc2c1 [3-(4-(2-hydroxy-2-methylpropoxy)-3,5-dimethylphenyl)-6,8-dimethoxyisoquinolin-1(2H)-one]",Active
6,"COc1cc(O)c2c(=O)[nH]c(-c3cc(C)c(O)c(C)c3)nc2c1 [5-hydroxy-2-(4-hydroxy-3,5-dimethylphenyl)-7-methoxyquinazolin-4(3H)-one]",Active
7,Oc1ccc(-c2cc3ccccc3cn2)cc1 [4-Isoquinolin-3-yl-phenol],Active
8,"COc1cc(OC)c2c(=O)[nH]c(-c3cc(C)c(N)c(C)c3)nc2c1 [2-(4-amino-3,5-dimethylphenyl)-5,7-dimethoxyquinazolin-4(3H)-one]",Active
9,"Cc1cc(-c2nc3cc(Cl)cc(Cl)c3c(=O)[nH]2)cc(C)c1OCCO [5,7-dichloro-2-(4-(2-hydroxyethoxy)-3,5-dimethylphenyl)quinazolin-4(3H)-one]",Active
10,"Cc1cc(-c2nc3ccc(CN4CCOCC4)cc3c(=O)[nH]2)cc(C)c1O [2-(4-hydroxy-3,5-dimethylphenyl)-6-(morpholinomethyl)quinazolin-4(3H)-one]",Active
11,"COc1cc(OC)c2c(=O)[nH]c(-c3cc(C)c(OCCN4CCOCC4)c(C)c3)nc2c1 [2-(3,5-dimethyl-4-(2-morpholinoethoxy)phenyl)-5,7-dimethoxyquinazolin-4(3H)-one]",Active
12,"COc1cc(OC)c2c(=O)[nH]c(-c3cc(C)c(OCCO)c(C)c3)cc2c1 [3-(4-(2-hydroxyethoxy)-3,5-dimethylphenyl)-6,8-dimethoxyisoquinolin-1(2H)-one]",Active
13,"COc1cc(OC)c2c(=O)[nH]c(-c3ccc(OC)c(CN4CCOCC4)c3)nc2c1 [5,7-dimethoxy-2-(4-methoxy-3-(morpholinomethyl)phenyl)quinazolin-4(3H)-one]",Active
14,"COc1cc(OC)c2c(=O)[nH]c(-c3ccc(O)c(Cl)c3)nc2c1 [2-(3-chloro-4-hydroxyphenyl)-5,7-dimethoxyquinazolin-4(3H)-one]",Active
15,"COc1cc(OC)c2c(=O)[nH]c(-c3ccc(C)cc3)nc2c1 [5,7-dimethoxy-2-p-tolylquinazolin-4(3H)-one]",Inactive
16,"COc1cc(OC)c2c(=O)[nH]c(-c3ccc(O)cc3)nc2c1 [2-(4-hydroxyphenyl)-5,7-dimethoxyquinazolin-4(3H)-one]",Active
17,"CNC(=O)c1ccccc1C(=O)NCCOc1c(C)cc(-c2nc3cc(OC)cc(OC)c3c(=O)[nH]2)cc1C [N1-(2-(4-(5,7-dimethoxy-4-oxo-3,4-dihydroquinazolin-2-yl)-2,6-dimethylphenoxy)ethyl)-N2-methylphthalamide]",Active
18,"COc1cc(OC)c2c(=O)[nH]c(-c3cccc(-c4ccc(S(C)(=O)=O)cc4)n3)nc2c1 [5,7-dimethoxy-2-(6-(4-(methylsulfonyl)phenyl)pyridin-2-yl)quinazolin-4(3H)-one]",Active
19,"CCCNC(=O)OCCOc1c(C)cc(-c2nc3cc(OC)cc(OC)c3c(=O)[nH]2)cc1C [2-(4-(5,7-Dimethoxy-4-oxo-3,4-dihydroquinazolin-2-yl)-2,6-dimethyl-phenoxy)ethyl propylcarbamate]",Active
20,"COc1cc(OC)c2c(=O)[nH]c(-c3cc(C)nc(Cl)c3)nc2c1 [2-(2-chloro-6-methylpyridin-4-yl)-5,7-dimethoxyquinazolin-4(3H)-one]",Active
21,"COc1cc2cc(-c3cc(C)c(O)c(C)c3)[nH]c(=O)c2c(OC)c1CN1CCOCC1 [3-(4-hydroxy-3,5-dimethylphenyl)-6,8-dimethoxy-7-(morpholinomethyl)isoquinolin-1(2H)-one]",Active

row,Structure (SMILES),Effect on ApoA-I mRNA levels
1,"COc1cc(OC)c2c(=O)[nH]c(-c3ccncc3)nc2c1 [5,7-dimethoxy-2-(pyridin-4-yl)quinazolin-4(3H)-one]",Active
2,"COc1cc(OC)c2c(=O)[nH]c(-c3ccc4c(c3)OCCO4)nc2c1 [2-(2,3-dihydrobenzo[b][1,4]dioxin-6-yl)-5,7-dimethoxyquinazolin-4(3H)-one]",Active
3,"COc1ccc(-c2nc3cc(OC)cc(OC)c3c(=O)[nH]2)cc1 [5,7-dimethoxy-2-(4-methoxyphenyl)quinazolin-4(3H)-one]",Active
4,"COc1cccc2nc(-c3cc(C)c(OCCO)c(C)c3)[nH]c(=O)c12 [2-(4-(2-hydroxyethoxy)-3,5-dimethylphenyl)-5-methoxyquinazolin-4(3H)-one]",Active
5,"COc1cc(OC)c2c(=O)[nH]c(-c3cc(C)c(O)c(C)c3)nc2n1 [2-(4-hydroxy-3,5-dimethylphenyl)-5,7-dimethoxypyrido[2,3-d]pyrimidin-4(3H)-one]",Active
6,"Cc1cc(-c2cc3ncccc3c(=O)[nH]2)cc(C)c1O [7-(4-hydroxy-3,5-dimethylphenyl)-1,6-naphthyridin-5(6H)-one]",Active
7,"COc1cc(OC)c2c(=O)[nH]c(-c3cc(C)c(OCCOCc4ccccc4)c(C)c3)nc2n1 [2-(4-(2-(benzyloxy)ethoxy)-3,5-dimethylphenyl)-5,7-dimethoxypyrido[2,3-d]pyrimidin-4(3H)-one]",Inactive
8,"COc1cc(OC)c2c(=O)[nH]c(-c3ccc(N(C)C)c4ccccc34)nc2c1 [2-(4-(dimethylamino)naphthalene-1-yl)-5,7-dimethoxyquinazolin-4(3H)-one]",Active
9,"CNC(=O)OCCOc1c(C)cc(-c2nc3cc(OC)cc(OC)c3c(=O)[nH]2)cc1C [2-(4-(5,7-Dimethoxy-4-oxo-3,4-dihydroquinazolin-2-yl)-2,6-dimethyl-phenoxy)ethyl methylcarbamate]",Active
10,"COc1cc(OC)c2c(=O)[nH]c(-c3cccc([N+](=O)[O-])c3)nc2c1 [5,7-dimethoxy-2-(3-nitrophenyl)quinazolin-4(3H)-one]",Inactive
11,"COc1cc(OC)c2c(=O)n(C)c(-c3cc(C)c(O)c(C)c3)cc2c1 [3-(4-hydroxy-3,5-dimethylphenyl)-6,8-dimethoxy-2-methylisoquinolin-1(2H)-one]",Active
12,"COc1cc(OC)c2c(=O)[nH]c(-c3ccc(OCCO)c(OC)c3)nc2c1 [2-(4-(2-hydroxyethoxy)-3-methoxyphenyl)-5,7-dimethoxyquinazolin-4(3H)-one]",Active
13,"COc1cc(OC)c2c(=O)[nH]c(-c3ccccc3Cl)nc2c1 [2-(2-chlorophenyl)-5,7-dimethoxyquinazolin-4(3H)-one]",Active
14,"COc1cc(OC)c2c(=O)[nH]c(-c3ccc(OCCO)c(C)c3)nc2c1 [2-(4-(2-hydroxyethoxy)-3-methylphenyl)-5,7-dimethoxyquinazolin-4(3H)-one]",Active
15,"O=C(O)COc1ccc(-c2nc3ccccc3c(=O)[nH]2)cc1 [2-(4-(4-oxo-3,4-dihydroquinazolin-2-yl)phenoxy)acetic acid]",Active
16,COc1cccc2c(=O)[nH]c(-c3ccc(O)c(F)c3)cc12 [3-(3-fluoro-4-hydroxyphenyl)-5-methoxyisoquinolin-1(2H)-one],Inactive
17,"COc1cc(OC)c2c(=O)nc(-c3cc(C)c(O)c(C)c3)n(C)c2c1 [2-(4-hydroxy-3,5-dimethylphenyl)-5,7-dimethoxy-1-methylquinazolin-4(1H)-one]",Active
18,"COc1cc(OC)c2cnc(-c3cc(C)c(O)c(C)c3)cc2c1 [4-(6,8-dimethoxyisoquinolin-3-yl)-2,6-dimethylphenol]",Active
19,"COc1cc(OC)c2c(=O)[nH]c(-c3cc(C)c(OCCO)c(C)c3)nc2c1 [2-(4-(2-hydroxyethoxy)-3,5-dimethylphenyl)-5,7-dimethoxyquinazolin-4(3H)-one]",Active
20,"COc1cc(OC)c2c(=O)[nH]c(-c3cc(C)c(OCCNC(=O)C(C)C)c(C)c3)nc2c1 [N-(2-(4-(5,7-dimethoxy-4-oxo-3,4-dihydroquinazolin-2-yl)-2,6-dimethylphenoxy)ethyl)isobutyramide]",Active
